Results on 21 compounds are retold here after US12325709B2, “Cannabinoid derivatives” (CANOPY GROWTH CORPORATION, priority 2019, dated 2025).

Each structure is given as a SMILES string.

For one assay, the target named is T1, human CB2 receptor (Homo sapiens, UniProt P34972).
T1 construct: host or cells: CHO-K1 (Chinese hamster ovary) cells, stably transfected; membranes prepared in house
Description: CB2 radioligand competitive binding assay ([3H]CP 55,940 displacement). As to conditions: for Selectivity CB2: fold difference in binding between CB1 and CB2, shown in column of receptor with higher affinity, 1.00 in both = about the same affinity. The method, then: Compounds of the present disclosure were tested for CB1 receptor binding affinity and for CB2 receptor binding affinity. As used herein, “binding affinity” is represented by the IC50 value, which was experimentally determined as described herein. The lower the IC50 value the higher the binding affinity.
The membranes were prepared from CHO-K1 (Chinese hamster ovary) cells stably transfected with the human CB2 receptor (Cat. #ES-111-C; Perkin Elmer, Boston, MA). The cells were grown adherently and maintained in Ham's F12 medium containing 10% fetal bovine serum (FBS), penicillin, streptomycin and geneticin (G418) at 37° C. in a humid atmosphere of 5% CO2 following the manufacturer's instructions.
For membrane preparation the cells were washed with PBS and scraped off the plates in cold homogenization buffer (25 mM HEPES (pH 7.4), 2 mM EDTA) containing protease inhibitor cocktail (Sigma Cat. #P8340). The cell suspension was homogenized with a Pro-PK-01200D Polytron Homogenizer (Pro Scientific) and then centrifuged for 30 min at 120,000×g. The supernatant was discarded and the pellet was re-suspended in the homogenization buffer and stored at −80° C. until the time of use.
In this experiment, 3H radiolabeled CP 55,940, i.e. [3H]CP 55,940 (Perkin Elmer, Boston, MA), was used as a radioligand for the CB2 receptor to determine the binding affinity of compounds for the CB2 receptor (Scheme 3; above).
The competition binding experiments (single dose and dose-response) were performed by incubating 0.6 nM of [3H]CP55,940 (specific activity 101 Ci/mmol, Perkin Elmer) and different concentrations of compounds disclosed herein with membranes prepared as above from CHO-K1 cells expressing human CB2 receptor (1 μg of protein/well), 50 mM Tris-HCl (pH 7.4), 5 mM MgCl2, 1 mM CaCl2, and 2 mg/mL BSA.
For the dose-response experiments the test compounds were sequentially diluted to provide the desired concentration range for the IC50 determination. In each case the compounds were pre-incubated with the membrane for 20 min, before adding the radioligand.
After incubation with the radioligand for 60 min at 37° C., the incubation was terminated by rapid filtration of assay mixture through MultiScreen®HTS^+ 96-well filter plates (Millipore, Cat. #MSFCNXB), pre-soaked for 60 min with 50 mM Tris-HCl (pH 7.4) containing 0.33% polyethylenimine (PEI). The nonspecific binding (NSB) was determined in the presence of 10 μM unlabelled CP55,940. After drying the filter plate at 50° C. for at least 60 min, the filter-bound radioactivity was determined by scintillation spectrometry using the 1450 MicroBeta Plate Counter (Perkin Elmer, Boston, MA).

The next assay addresses T2, human CB1 receptor (Homo sapiens, UniProt P21554).
T2 construct: host or cells: CHO-K1 (Chinese hamster ovary) cells, stably transfected; membranes prepared in house
The experiment in a line: CB1 radioligand competitive binding assay ([3H]CP 55,940 displacement).

T1 sequence (P34972 whole entry): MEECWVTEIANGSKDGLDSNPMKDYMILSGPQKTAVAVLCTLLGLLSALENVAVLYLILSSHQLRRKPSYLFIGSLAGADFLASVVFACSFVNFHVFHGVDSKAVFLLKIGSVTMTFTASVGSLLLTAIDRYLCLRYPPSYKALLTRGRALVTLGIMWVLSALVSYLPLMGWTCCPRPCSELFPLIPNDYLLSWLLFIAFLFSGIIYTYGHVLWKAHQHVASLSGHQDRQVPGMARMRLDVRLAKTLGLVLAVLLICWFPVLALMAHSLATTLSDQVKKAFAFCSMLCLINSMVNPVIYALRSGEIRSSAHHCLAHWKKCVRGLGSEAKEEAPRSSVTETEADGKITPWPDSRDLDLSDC
T2 sequence (P21554 whole entry): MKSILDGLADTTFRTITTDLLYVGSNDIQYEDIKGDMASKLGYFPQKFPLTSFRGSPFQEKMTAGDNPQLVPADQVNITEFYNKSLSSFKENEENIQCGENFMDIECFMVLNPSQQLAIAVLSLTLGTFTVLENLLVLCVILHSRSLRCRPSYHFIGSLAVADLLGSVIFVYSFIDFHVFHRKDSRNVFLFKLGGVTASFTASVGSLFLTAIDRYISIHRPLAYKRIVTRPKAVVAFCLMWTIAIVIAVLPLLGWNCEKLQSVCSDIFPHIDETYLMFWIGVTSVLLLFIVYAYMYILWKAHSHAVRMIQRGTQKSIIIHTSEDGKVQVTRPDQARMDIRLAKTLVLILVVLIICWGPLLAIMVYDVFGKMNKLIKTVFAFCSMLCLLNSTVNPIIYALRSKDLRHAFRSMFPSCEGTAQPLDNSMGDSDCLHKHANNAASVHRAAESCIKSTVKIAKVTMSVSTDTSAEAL

With `CCCCCc1cc(O)c(C2C=C(C)CCC2)c(O)c1C(=O)N1CCOCC1` (stereo not shown) [Compound 39c, (2,6-dihydroxy-5′-methyl-4-pentyl-1′,2′,3′,4′-tetrahydro-[1,1′-biphenyl]-3-yl)(morpholino)methanone], the IC50 at human CB2 receptor and on human CB1 receptor was 1000 to 4990 nM in each case. For the same compound, on human CB2 receptor, the “Selectivity CB2” value was 3.20 fold.
`CCCCCc1cc(O)c(C2C=C(C)CCC2)c(O)c1C(=O)NC1CC1` (stereo not shown) [Compound 6c, N-cyclopropyl-2,6-dihydroxy-5′-methyl-4-pentyl-1′,2′,3′,4′-tetrahydro-[1,1′-biphenyl]-3-carboxamide]: the 50% inhibitory concentration (IC50) at human CB2 receptor was less than 100 nM; on human CB1 receptor it was 1000 to 4990 nM. The “Selectivity CB2” value on human CB2 receptor turned out to be 40.14 fold.
The corresponding values for `C=C(C)[C@@H]1CCC(C)=C[C@H]1c1c(O)cc(CCC)c(C(=O)NC)c1O` [Compound 96d, 2,6-dihydroxy-N,5′-dimethyl-2′-(prop-1-en-2-yl)-4-propyl-1′,2′,3′,4′-tetrahydro-[1,1′-biphenyl]-3-carboxamide] are greater than 5000 nM, greater than 5000 nM and 2.59 fold.
In the case of `CCCCCc1cc(O)c(C2C=C(C)CCC2)c(O)c1CN(C)C(=O)OC` (stereo not shown) [Compound 59c, methyl ((2,6-dihydroxy-5′-methyl-4-pentyl-1′,2′,3′,4′-tetrahydro-[1,1′-biphenyl]-3-yl)methyl)(methyl)carbamate], on human CB2 receptor, the IC50 was less than 100 nM and the “Selectivity CB2” value is on record as 9.26 fold. On human CB1 receptor, this compound had an IC50 of 100 to 990 nM.
The corresponding values for `C=C(C)C1CCC(C)=CC1c1c(O)cc(CCCCC)c(C(=O)NCc2ccccc2)c1O` (stereo not shown) [Compound 14d, N-benzyl-2,6-dihydroxy-5′-methyl-4-pentyl-2′-(prop-1-en-2-yl)-1′,2′,3′,4′-tetrahydro-[1,1′-biphenyl]-3-carboxamide] are 1000 to 4990 nM, 13.50 fold and greater than 5000 nM.
On to `CCCCCc1cc(O)c(C2C=C(C)CCC2)c(O)c1C(=O)N1CCCC1` (stereo not shown) [Compound 41c, (2,6-dihydroxy-5′-methyl-4-pentyl-1′,2′,3′,4′-tetrahydro-[1,1′-biphenyl]-3-yl)(pyrrolidin-1-yl)methanone], for which the values for the IC50 on human CB2 receptor and on human CB1 receptor were 1000 to 4990 nM and greater than 5000 nM, respectively. Moreover, at human CB2 receptor, the “Selectivity CB2” value was 13.31 fold.
Consider `CCCc1c(CN(C)C(=O)OC)c(O)c(C2C=C(C)CCC2)c(O)c1CN(C)C(=O)OC` (stereo not shown) [59′c, dimethyl ((2,6-dihydroxy-5′-methyl-4-propyl-1′,2′,3′,4′-tetrahydro-[1,1′-biphenyl]-3,5-diyl)bis(methylene))bis(methylcarbamate)], for which the IC50 lay in the range of 100 to 990 nM on human CB2 receptor and 1000 to 4990 nM on human CB1 receptor. Further, the “Selectivity CB2” value on human CB2 receptor is 3.25 fold.
In the case of `CCCCCc1cc(O)c(C2C=C(C)CCC2)c(O)c1C(=O)NCc1ccccc1Br` (stereo not shown) [Compound 57c, N-(2-bromobenzyl)-2,6-dihydroxy-5′-methyl-4-pentyl-1′,2′,3′,4′-tetrahydro-[1,1′-biphenyl]-3-carboxamide], at human CB2 receptor, the half-maximal inhibitory concentration (IC50) is less than 100 nM and the “Selectivity CB2” value is listed as 21.67 fold. In addition, on human CB1 receptor, the half-maximal inhibitory concentration (IC50) was in the range of 1000 to 4990 nM.
Regarding `C=C(C)[C@@H]1CCC(C)=C[C@H]1c1c(O)cc(CCCCC)c(C(=O)Nc2ccc(OC)cc2)c1O` [Compound 11d, 2,6-dihydroxy-N-(4-methoxyphenyl)-5′-methyl-4-pentyl-2′-(prop-1-en-2-yl)-1′,2′,3′,4′-tetrahydro-[1,1′-biphenyl]-3-carboxamide], on human CB2 receptor, the 50% inhibitory concentration (IC50) lay within 100 to 990 nM and the “Selectivity CB2” value is 3.11 fold. In addition, the IC50 at human CB1 receptor is 1000 to 4990 nM.
As to `CCCCCc1cc(O)c(C2C=C(C)CCC2)c(O)c1C(=O)N1CCN(S(C)(=O)=O)CC1` (stereo not shown) [Compound 37c, (2,6-dihydroxy-5′-methyl-4-pentyl-1′,2′,3′,4′-tetrahydro-[1,1′-biphenyl]-3-yl)(4-(methylsulfonyl)piperazin-1-yl)methanone], on human CB2 receptor, the half-inhibitory concentration (IC50) fell in the range of 100 to 990 nM and the “Selectivity CB2” value is recorded as 66.67 fold. The same compound showed a 50% inhibitory concentration (IC50) on human CB1 receptor greater than 5000 nM.
Consider `CCCCCc1cc(O)c(C2C=C(C)CCC2)c(O)c1C(=O)NC1CCCC1` (stereo not shown) [Compound 7c, N-cyclopentyl-2,6-dihydroxy-5′-methyl-4-pentyl-1′,2′,3′,4′-tetrahydro-[1,1′-biphenyl]-3-carboxamide], for which, on human CB2 receptor, the IC50 is less than 100 nM and the “Selectivity CB2” value was found to be 188.10 fold. The IC50 at human CB1 receptor was 100 to 990 nM.
Consider `CCCCCc1cc(O)c(C2C=C(C)CCC2)c(O)c1C(N)=O` (stereo not shown) [Compound 58c, 2,6-dihydroxy-5′-methyl-4-pentyl-1′,2′,3′,4′-tetrahydro-[1,1′-biphenyl]-3-carboxamide], for which the 50% inhibitory concentration (IC50) on human CB2 receptor is 1000 to 4990 nM; on human CB1 receptor, greater than 5000 nM. For the same compound, the “Selectivity CB2” value at human CB2 receptor was 11.83 fold.
For the compound `C=C(C)[C@@H]1CCC(C)=C[C@H]1c1c(O)cc(CCCCC)c(C(=O)NC)c1O` [Compound 1d, 2,6-dihydroxy-N,5′-dimethyl-4-pentyl-2′-(prop-1-en-2-yl)-1′,2′,3′,4′-tetrahydro-[1,1′-biphenyl]-3-carboxamide], the IC50 on human CB2 receptor is 100 to 990 nM; at human CB1 receptor it was 1000 to 4990 nM. Further, the “Selectivity CB2” value at human CB2 receptor was 1.26 fold.
On to `CCCCCc1cc(O)c(C2C=C(C)CCC2)c(O)c1C(=O)N1CCn2cnnc2C1` (stereo not shown) [Compound 34c, (5,6-dihydro-[1,2,4]triazolo[4,3-a]pyrazin-7(8H)-yl)(2,6-dihydroxy-5′-methyl-4-pentyl-1′,2′,3′,4′-tetrahydro-[1,1′-biphenyl]-3-yl)methanone], for which the IC50 on human CB2 receptor and at human CB1 receptor was greater than 5000 nM throughout. Also, the “Selectivity CB2” value on human CB2 receptor is given as 1.00 fold. Moreover, the “Selectivity CB1” value on human CB1 receptor (fold difference in binding between CB1 and CB2, shown in column of receptor with higher affinity, 1.00 in both = about the same affinity) was found to be 1.00 fold.
Consider `CCCCCc1cc(O)c(C2C=C(C)CCC2)c(O)c1C(=O)NCc1cccnc1` (stereo not shown) [Compound 15c, 2,6-dihydroxy-5′-methyl-4-pentyl-N-(pyridin-3-ylmethyl)-1′,2′,3′,4′-tetrahydro-[1,1′-biphenyl]-3-carboxamide], for which the IC50 at human CB2 receptor was less than 100 nM; at human CB1 receptor it was 1000 to 4990 nM. Also, the “Selectivity CB2” value on human CB2 receptor is listed as 23.17 fold.
With `CCCCCc1cc(O)c(C2C=C(C)CCC2)c(O)c1C(=O)NCc1ccccc1` (stereo not shown) [Compound 14c, N-benzyl-2,6-dihydroxy-5′-methyl-4-pentyl-1′,2′,3′,4′-tetrahydro-[1,1′-biphenyl]-3-carboxamide], the IC50 is less than 100 nM at human CB2 receptor and 1000 to 4990 nM on human CB1 receptor. Besides, the “Selectivity CB2” value on human CB2 receptor was found to be 1300.00 fold.
Take `CCCCCc1cc(O)c(-c2cccc(C)c2)c(O)c1C(=O)NCc1cccnc1` [Compound 15a, 2,6-dihydroxy-3′-methyl-4-pentyl-N-(pyridin-3-ylmethyl)-[1,1′-biphenyl]-3-carboxamide]: at human CB2 receptor, the IC50 lay within 100 to 990 nM and the “Selectivity CB2” value is 17.62 fold. The compound further had a 50% inhibitory concentration (IC50) on human CB1 receptor greater than 5000 nM.
`CCCCCc1cc(O)c(-c2cccc(C)c2)c(O)c1C(=O)N1CCOCC1` [Compound 39a, (2,6-dihydroxy-3′-methyl-4-pentyl-[1,1′-biphenyl]-3-yl)(morpholino)methanone]: the IC50 on human CB2 receptor and on human CB1 receptor was greater than 5000 nM in each case. Further, on human CB2 receptor, the “Selectivity CB2” value came out at 3.70 fold.
Consider `CCCCCc1cc(O)c(C2C=C(C)CCC2)c(O)c1C(=O)NC` (stereo not shown) [Compound 1c, 2,6-dihydroxy-N,5′-dimethyl-4-pentyl-1′,2′,3′,4′-tetrahydro-[1,1′-biphenyl]-3-carboxamide], for which, at human CB2 receptor, the concentration for half-maximal inhibition (IC50) lay in the range of 1000 to 4990 nM and the “Selectivity CB2” value amounted to 3.20 fold. The IC50 on human CB1 receptor was greater than 5000 nM.
As to `CCCCCc1cc(O)c(-c2cccc(C)c2)c(O)c1CN(C)C(=O)OC` [Compound 59a, methyl ((2,6-dihydroxy-3′-methyl-4-pentyl-[1,1′-biphenyl]-3-yl)methyl)(methyl)carbamate], the half-maximal inhibitory concentration (IC50) was less than 100 nM at human CB2 receptor and 100 to 990 nM on human CB1 receptor. Further, the “Selectivity CB2” value on human CB2 receptor is recorded as 10.91 fold.
In the case of `C=C(C)[C@@H]1CCC(C)=C[C@H]1c1c(O)cc(CCCCC)c(C(=O)NCC)c1O` [Compound 3d, N-ethyl-2,6-dihydroxy-5′-methyl-4-pentyl-2′-(prop-1-en-2-yl)-1′,2′,3′,4′-tetrahydro-[1,1′-biphenyl]-3-carboxamide], at human CB2 receptor, the IC50 was 1000 to 4990 nM and the “Selectivity CB2” value is given as 1.80 fold. For the same compound, at human CB1 receptor, the IC50 was 1000 to 4990 nM.
